This note sets out measurements from the NIST ThermoML archive (doi:10.1021/je0504109).

Numbers after ± are expanded uncertainties.

A short description of the data set: xn = mol fraction of the nth substance listed. The following applies: 298.15 K, 101 kPa, Liquid.

For orientation: mass density means the mass of a sample divided by its volume. Broadly, the viscosity is the resistance of a fluid to flow. Turning to `C1COCO1` [1,3-dioxolane] + CCC(C)=O, the mass density by setting is: (x1 = 0.0976) 818.9 ± 0.6 kg/m3; (x1 = 0.1957) 840.5 ± 0.7 kg/m3; (x1 = 0.2944) 863.1 ± 0.7 kg/m3; (x1 = 0.3935) 886.8 ± 0.7 kg/m3; (x1 = 0.4933) 911.8 ± 0.7 kg/m3; (x1 = 0.5935) 938.1 ± 0.8 kg/m3. Besides, the mass density (x1 = 0.6943) is 965.5 ± 0.8 kg/m3, the mass density (x1 = 0.7956) is given as 994.2 ± 0.8 kg/m3, the mass density (x1 = 0.8975) is recorded as 1024.5 ± 0.8 kg/m3 and the mass density (x1 = 1) is given as 1057.1 ± 0.9 kg/m3. The viscosity is, setting by setting: (x1 = 0.0976) 0.384 ± 0.008 mPa·s; (x1 = 0.1957) 0.397 ± 0.008 mPa·s; (x1 = 0.2944) 0.411 ± 0.008 mPa·s; (x1 = 0.3935) 0.426 ± 0.008 mPa·s; (x1 = 0.4933) 0.441 ± 0.009 mPa·s; (x1 = 0.5935) 0.456 ± 0.009 mPa·s. Besides, the viscosity is, setting by setting: (x1 = 0.6943) 0.473 ± 0.009 mPa·s; (x1 = 0.7956) 0.491 ± 0.009 mPa·s; (x1 = 0.8975) 0.51 ± 0.01 mPa·s; (x1 = 1) 0.531 ± 0.01 mPa·s.

As for `C1COCO1` [1,3-dioxolane] + CCCC(=O)O, where the note is “x1 = 1”, the mass density is 1057.1 ± 0.9 kg/m3 and the viscosity turned out to be 0.531 ± 0.01 mPa·s.

For `C1COCO1` [1,3-dioxolane] + CCCCN, for the setting “x1 = 1”, the mass density was 1057.1 ± 0.9 kg/m3 and the viscosity is 0.531 ± 0.01 mPa·s.

In the case of `C1COCO1` [1,3-dioxolane] + CCCCOC(C)=O, the mass density (x1 = 0.1484) is 890.7 ± 0.7 kg/m3; the mass density (x1 = 0.2816) amounted to 906.9 ± 0.7 kg/m3; the mass density (x1 = 0.4019) was 923.3 ± 0.7 kg/m3; the mass density (x1 = 0.5111) was found to be 940.3 ± 0.8 kg/m3; the mass density (x1 = 0.6106) came to 957.8 ± 0.8 kg/m3; the mass density (x1 = 0.7017) worked out at 976.1 ± 0.8 kg/m3. For the same compound, the mass density (x1 = 0.7853) turned out to be 995.2 ± 0.8 kg/m3, the mass density (x1 = 0.8625) is 1015 ± 0.8 kg/m3, the mass density (x1 = 0.9338) turned out to be 1035.6 ± 0.9 kg/m3 and the mass density (x1 = 1) was 1057.1 ± 0.9 kg/m3. The viscosity by setting is: (x1 = 0.1484) 0.621 ± 0.011 mPa·s; (x1 = 0.2816) 0.599 ± 0.011 mPa·s; (x1 = 0.4019) 0.588 ± 0.011 mPa·s; (x1 = 0.5111) 0.583 ± 0.011 mPa·s; (x1 = 0.6106) 0.577 ± 0.011 mPa·s; (x1 = 0.7017) 0.571 ± 0.01 mPa·s. The viscosity is, setting by setting: (x1 = 0.7853) 0.565 ± 0.01 mPa·s; (x1 = 0.8625) 0.556 ± 0.01 mPa·s; (x1 = 0.9338) 0.544 ± 0.01 mPa·s; (x1 = 1) 0.531 ± 0.01 mPa·s.

For the compound `C1COCCO1` [1,4-dioxane] + CCC(C)=O, where the note is “x1 = 1”, the mass density came to 1026.5 ± 0.8 kg/m3 and the viscosity came out at 1.196 ± 0.02 mPa·s.

Consider `C1COCCO1` [1,4-dioxane] + CCCC(=O)O, for which, for the setting “x1 = 1”, the mass density was determined as 1026.5 ± 0.8 kg/m3 and the viscosity stood at 1.196 ± 0.02 mPa·s.

Regarding `C1COCCO1` [1,4-dioxane] + CCCCN, for the setting “x1 = 1”, the mass density came to 1026.5 ± 0.8 kg/m3 and the viscosity is recorded as 1.196 ± 0.02 mPa·s.

Take `C1COCCO1` [1,4-dioxane] + CCCCOC(C)=O: under “x1 = 1”, the mass density was 1026.5 ± 0.8 kg/m3 and the viscosity is listed as 1.196 ± 0.02 mPa·s.

For the compound `CCCCN` [1-butanamine] + C1COCCO1, the mass density (x2 = 0) worked out at 731.9 ± 0.6 kg/m3; the mass density (x2 = 0.0855) worked out at 753.4 ± 0.6 kg/m3; the mass density (x2 = 0.1738) came out at 776.1 ± 0.6 kg/m3; the mass density (x2 = 0.265) was 800.1 ± 0.6 kg/m3; the mass density (x2 = 0.3594) was determined as 825.8 ± 0.7 kg/m3; the mass density (x2 = 0.4569) stood at 853.3 ± 0.7 kg/m3. The mass density (x2 = 0.5579) is on record as 882.8 ± 0.7 kg/m3, the mass density (x2 = 0.6625) is listed as 914.7 ± 0.7 kg/m3, the mass density (x2 = 0.7709) was found to be 949.2 ± 0.8 kg/m3 and the mass density (x2 = 0.8834) stood at 986.4 ± 0.8 kg/m3. Also, the viscosity (x2 = 0) worked out at 0.493 ± 0.009 mPa·s; the viscosity (x2 = 0.0855) was determined as 0.509 ± 0.01 mPa·s; the viscosity (x2 = 0.1738) is recorded as 0.524 ± 0.01 mPa·s; the viscosity (x2 = 0.265) is reported as 0.541 ± 0.01 mPa·s; the viscosity (x2 = 0.3594) came out at 0.56 ± 0.01 mPa·s; the viscosity (x2 = 0.4569) stood at 0.59 ± 0.011 mPa·s. Besides, the viscosity amounted to 0.637 ± 0.011 mPa·s (x2 = 0.5579), 0.699 ± 0.012 mPa·s (x2 = 0.6625), 0.792 ± 0.014 mPa·s (x2 = 0.7709) and 0.941 ± 0.016 mPa·s (x2 = 0.8834).

For `CCCCN` [1-butanamine] + C1COCO1, the mass density is, setting by setting: (x2 = 0) 731.9 ± 0.6 kg/m3; (x2 = 0.1001) 755.1 ± 0.6 kg/m3; (x2 = 0.2001) 779.6 ± 0.6 kg/m3; (x2 = 0.3002) 805.8 ± 0.6 kg/m3; (x2 = 0.4002) 833.8 ± 0.7 kg/m3; (x2 = 0.5002) 864.1 ± 0.7 kg/m3. Also, the mass density is, setting by setting: (x2 = 0.6002) 896.8 ± 0.7 kg/m3; (x2 = 0.7002) 932.1 ± 0.8 kg/m3; (x2 = 0.8001) 970.3 ± 0.8 kg/m3; (x2 = 0.9001) 1011.8 ± 0.8 kg/m3. For the same compound, the viscosity amounted to 0.493 ± 0.009 mPa·s (x2 = 0); 0.477 ± 0.009 mPa·s (x2 = 0.1001); 0.463 ± 0.009 mPa·s (x2 = 0.2001); 0.458 ± 0.009 mPa·s (x2 = 0.3002); 0.455 ± 0.009 mPa·s (x2 = 0.4002); 0.456 ± 0.009 mPa·s (x2 = 0.5002). In addition, the viscosity reads like this: (x2 = 0.6002) 0.464 ± 0.009 mPa·s; (x2 = 0.7002) 0.478 ± 0.009 mPa·s; (x2 = 0.8001) 0.496 ± 0.009 mPa·s; (x2 = 0.9001) 0.513 ± 0.01 mPa·s.

On to `CCCC(=O)O` [butanoic acid] + C1COCCO1, for which the mass density reads like this: (x2 = 0) 952.8 ± 0.8 kg/m3; (x2 = 0.1) 961.7 ± 0.8 kg/m3; (x2 = 0.2) 970.3 ± 0.8 kg/m3; (x2 = 0.3) 978.4 ± 0.8 kg/m3; (x2 = 0.4) 986.1 ± 0.8 kg/m3; (x2 = 0.5) 993.4 ± 0.8 kg/m3. For the same compound, the mass density was determined as 1000.2 ± 0.8 kg/m3 (x2 = 0.6), 1006.8 ± 0.8 kg/m3 (x2 = 0.7), 1013.1 ± 0.8 kg/m3 (x2 = 0.8) and 1019.4 ± 0.8 kg/m3 (x2 = 0.9). For the same compound, the viscosity runs as follows: (x2 = 0) 1.396 ± 0.023 mPa·s; (x2 = 0.1) 1.504 ± 0.025 mPa·s; (x2 = 0.2) 1.57 ± 0.026 mPa·s; (x2 = 0.3) 1.587 ± 0.026 mPa·s; (x2 = 0.4) 1.572 ± 0.026 mPa·s; (x2 = 0.5) 1.507 ± 0.025 mPa·s. In addition, the viscosity came out at 1.443 ± 0.024 mPa·s (x2 = 0.6), 1.362 ± 0.022 mPa·s (x2 = 0.7), 1.293 ± 0.021 mPa·s (x2 = 0.8) and 1.241 ± 0.021 mPa·s (x2 = 0.9).
